Test results reported in article PMC11785640, “Structure-based inhibition of acetylcholinesterase and butyrylcholinesterase with 2-Aryl-6-carboxamide benzoxazole derivatives: synthesis, enzymatic assay, and in silico studies” (Molecular Diversity, 2024).

Legend:
[1] = system: AChE; details: cited from earlier work
[2] = target: BChE (Equus caballus, UniProt P81908); assay: biochemical; assay type: biochemical; details: for Ki: from Lineweaver-Burk graphs, mean ± SD, triplicate
Method: (§1) These analogs were dissolved in DMSO at an initial concentration of 1 mg/mL. Around 1% of DMSO was present in the final reaction mixture. Acetylthiocholine iodide (AChI)/butyrylcholine iodide (BChI) were used as substrates for enzymatic reactions. […] The mixture was incubated at 20 °C for 20 min. Then, 50 µL of 5,5’-dithio-bis 2-nitro-benzoic acid (DTNB, 0.5 mM) and AChI/BChI were added and enzymatic reactions were initiated.
(§2) Lineweaver-Burk graphs were used for the calculation of Ki and the other parameters as described in prior studies. The Ki values were taken out from this graph. All analyses were conducted independently in triplicate, and result data are expressed as mean values ± SD [59].

[3] = target: AChE (Electrophorus electricus, UniProt O42275); assay: biochemical; assay type: biochemical; details: for Ki: from Lineweaver-Burk graphs, mean ± SD, triplicate; for Selectivity index (AChE/BChE): ratio AChE/BChE
AChE (Electrophorus electricus, UniProt O42275), sequence (O42275 24-633): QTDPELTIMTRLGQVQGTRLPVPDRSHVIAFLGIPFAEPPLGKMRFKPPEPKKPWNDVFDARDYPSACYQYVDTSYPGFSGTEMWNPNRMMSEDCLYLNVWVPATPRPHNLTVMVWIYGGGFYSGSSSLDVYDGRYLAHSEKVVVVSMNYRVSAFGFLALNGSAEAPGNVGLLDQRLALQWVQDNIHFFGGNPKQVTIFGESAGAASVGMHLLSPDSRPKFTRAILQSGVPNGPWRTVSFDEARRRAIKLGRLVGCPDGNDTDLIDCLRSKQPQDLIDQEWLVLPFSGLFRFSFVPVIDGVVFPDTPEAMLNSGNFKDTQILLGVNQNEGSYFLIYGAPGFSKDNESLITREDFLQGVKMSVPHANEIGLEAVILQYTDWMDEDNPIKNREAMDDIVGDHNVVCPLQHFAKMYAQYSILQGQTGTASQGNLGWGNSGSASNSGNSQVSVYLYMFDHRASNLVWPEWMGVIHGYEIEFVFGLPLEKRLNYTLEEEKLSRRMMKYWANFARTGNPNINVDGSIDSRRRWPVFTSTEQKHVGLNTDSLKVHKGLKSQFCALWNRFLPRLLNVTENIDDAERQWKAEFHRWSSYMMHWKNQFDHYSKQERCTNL
Method: as §1, §2

BChE, sequence (P81908 whole entry): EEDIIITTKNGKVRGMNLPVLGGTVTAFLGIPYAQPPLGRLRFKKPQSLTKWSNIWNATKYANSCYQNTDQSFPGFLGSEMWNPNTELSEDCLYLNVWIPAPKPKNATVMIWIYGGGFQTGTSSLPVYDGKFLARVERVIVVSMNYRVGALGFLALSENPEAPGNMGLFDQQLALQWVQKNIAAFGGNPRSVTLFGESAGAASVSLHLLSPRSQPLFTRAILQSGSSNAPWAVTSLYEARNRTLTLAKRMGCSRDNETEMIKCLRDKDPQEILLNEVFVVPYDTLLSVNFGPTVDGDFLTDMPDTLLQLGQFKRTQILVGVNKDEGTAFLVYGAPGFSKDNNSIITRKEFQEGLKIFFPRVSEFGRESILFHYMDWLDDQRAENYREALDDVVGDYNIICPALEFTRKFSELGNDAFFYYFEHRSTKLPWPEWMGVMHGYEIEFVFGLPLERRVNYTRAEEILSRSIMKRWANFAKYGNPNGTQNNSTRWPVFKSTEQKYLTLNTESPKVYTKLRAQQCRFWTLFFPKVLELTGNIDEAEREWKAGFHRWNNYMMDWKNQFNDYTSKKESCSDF

SMILES	concentration at which it inhibits AChE [1] [nM]	IC50 [1] [nM]	IC50 [2] [nM]	Ki [2] [nM]	IC50 [3] [nM]	Ki [3] [nM]	Selectivity index (AChE/BChE) [3]
CN(C)C(=O)Oc1ccccc1-c1nc2ccccc2o1 [Compound 1]	58.2	–	–	–	–	–	–
Cc1ccc(CC(=O)Nc2ccc3nc(-c4ccccc4)oc3c2)cc1 [Compound 4]	–	38.4	–	–	–	–	–
S=c1oc2ccccc2n1CN1CCOCC1 [Compound 5, 3-morpholino methyl-2-thione benzoxazole]	–	44	–	–	–	–	–
O=C(c1ccc2nc(-c3cccs3)oc2c1)N1CCCCC1 [Compound 47, Piperidin-1-yl(2-(thiophen-2-yl)benzo[d]oxazol-6-yl)methanone]	–	–	65.2	46.6 ± 2.1	24	22.3 ± 4.11	0.48
CCN(CC)Cn1c(=S)oc2ccccc21 [Compound 6, 3-(diethylamino) methyl-2-thione benzoxazole]	–	38	–	–	–	–	–
O=C(c1ccc2nc(-c3cccc4ccccc34)oc2c1)N1CCCC1 [Compound 22]	–	–	124	72.5 ± 5.66	43	41.9 ± 5.64	0.58
O=C(c1ccc2nc(-c3ccc(-c4ccccc4)cc3)oc2c1)N1CCCCC1 [Compound 17, (2-([1,1’-Biphenyl]-4-yl)benzo[d]oxazol-6-yl)(piperidin-1-yl)methanone]	–	–	58.9	49.2 ± 11.1	20.6	18.4 ± 3.33	0.37
O=C(c1ccc2nc(-c3cccs3)oc2c1)N1CCOCC1 [Compound 48, Morpholino(2-(thiophen-2-yl)benzo[d]oxazol-6-yl)methanone]	–	–	33	22.7 ± 3.07	17.9	10.6 ± 0.58	0.47
O=C(c1ccc2nc(-c3cccc4ccccc34)oc2c1)N1CCOCC1 [Compound 24, Morpholino(2-(naphthalen-1-yl)benzo[d]oxazol-6-yl)methanone]	–	–	83.8	50.7 ± 14	50.9	45.7 ± 1.65	0.90
O=C(c1ccc2nc(-c3ccco3)oc2c1)N1CCCCC1 [Compound 41]	–	–	80.1	75.5 ± 18.4	25.3	30.7 ± 6.03	0.41
O=C(c1ccc2nc(-c3ccc(-c4ccccc4)cc3)oc2c1)N1CCCC1 [Compound 16, (2-([1,1’-Biphenyl]-4-yl)benzo[d]oxazol-6-yl)(pyrrolidin-1-yl)methanone]	–	–	86.2	84 ± 12.4	26.3	26.7 ± 5.13	0.32
CCN1CCN(CC(=O)Nc2ccc3nc(-c4ccc(C(C)(C)C)cc4)oc3c2)CC1 [Compound 3]	–	3.67	–	–	–	–	–
CCCN(CCC)C(=O)c1ccc2nc(-c3ccc(-c4ccccc4)cc3)oc2c1 [Compound 15, 2-([1,1’-Biphenyl]-4-yl)-N,N-dipropylbenzo[d]oxazole-6-carboxamide]	–	–	113	95.7 ± 7.32	40.7	38.2 ± 0.66	0.40
